According to PubChem BioAssay AID270 (DTP/NCI, 2004):
“And” between values parts separate entries of the source, which are not always exact repeats. Identical values can stand only once. Records with an inconclusive call do not appear.

System: BDF1 mice, s.c. Lewis lung carcinoma, T/C %
Assay: NCI In Vivo Anticancer Drug Screen. Data for tumor model Lewis Lung Carcinoma (subcutaneous) in B6D2F1 (BDF1) mice
In short: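 First, mice carry a transplantable tumor. Next, groups receive either compound or vehicle. Finally, survival or tumor dimensions in the dosed animals are divided by the corresponding control figure.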

[1] = endpoint: mean tumor weight, dose: 50.0 mg/kg/injection, schedule: Q01DX011 (ip), vehicle: saline, higher = larger tumour
[2] = endpoint: mean tumor weight, dose: 100.0 mg/kg/injection, schedule: Q01DX011 (ip), vehicle: saline, higher = larger tumour
[3] = endpoint: mean tumor weight, dose: 200.0 mg/kg/injection, schedule: Q01DX011 (ip), vehicle: saline, higher = larger tumour
[4] = endpoint: median survival time, dose: 50.0 mg/kg/injection, schedule: Q01DX009 (ip), vehicle: saline, higher = longer survival

## NC(=O)NO
endpoint: mean tumor weight (est.), dose: 100.0 mg/kg/injection, schedule: Q01DX009 (ip), vehicle: water, higher = larger tumour
  T/C: 66 % of control
endpoint: mean tumor weight (est.), dose: 200.0 mg/kg/injection, schedule: Q01DX009 (ip), vehicle: water, higher = larger tumour
  T/C: 28 % of control
endpoint: mean tumor weight (est.), dose: 400.0 mg/kg/injection, schedule: Q01DX009 (ip), vehicle: water, higher = larger tumour
  T/C: 33 % of control
endpoint: mean tumor weight, dose: 25.0 mg/kg/injection, schedule: Q01DX011 (ip), vehicle: saline, higher = larger tumour
  T/C: 58 % of control
[1]
  T/C: 90 % of control
[2]
  T/C: 89 % of control
[3]
  T/C: 31 % of control
endpoint: median survival time, dose: 2.5 mg/kg/injection, schedule: Q08HX024 (ip), vehicle: saline, higher = longer survival
  T/C: 92 % of control
endpoint: median survival time, dose: 10.0 mg/kg/injection, schedule: Q08HX024 (ip), vehicle: Klucel (hydroxypropylcellulose) (HPC), higher = longer survival
  T/C: 181 % of control
endpoint: median survival time, dose: 20.0 mg/kg/injection, schedule: Q08HX024 (ip), vehicle: Klucel (hydroxypropylcellulose) (HPC), higher = longer survival
  T/C: 181 % of control
endpoint: median survival time, dose: 40.0 mg/kg/injection, schedule: Q08HX024 (ip), vehicle: Klucel (hydroxypropylcellulose) (HPC), higher = longer survival
  T/C: 95 % of control
endpoint: median survival time, dose: 40.0 mg/kg/injection, schedule: Q08HX024 (ip), vehicle: saline, higher = longer survival
  T/C: 90 % of control
endpoint: median survival time, dose: 97.0 mg/kg/injection, schedule: Q01DX009 (ip), vehicle: saline, higher = longer survival
  T/C: 119 % of control
endpoint: median survival time, dose: 100.0 mg/kg/injection, schedule: Q01DX009 (ip), vehicle: water, higher = longer survival
  T/C: 94 % of control
endpoint: median survival time, dose: 200.0 mg/kg/injection, schedule: Q01DX009 (ip), vehicle: water, higher = longer survival
  T/C: 100 % of control
endpoint: median survival time, dose: 1250.0 mg/kg/injection, schedule: Q01DX009 (ip), vehicle: saline, higher = longer survival
  T/C: 56 % of control

## NC(=O)NC1NC(=O)NC1=O (centres undefined)
endpoint: mean tumor weight, dose: 15.6 mg/kg/injection, schedule: Q01DX011 (ip), vehicle: saline, higher = larger tumour
  T/C: 67 % of control
endpoint: mean tumor weight, dose: 31.3 mg/kg/injection, schedule: Q01DX011 (ip), vehicle: saline, higher = larger tumour
  T/C: 97 % of control
endpoint: mean tumor weight, dose: 62.5 mg/kg/injection, schedule: Q01DX011 (ip), vehicle: saline, higher = larger tumour
  T/C: 69 % of control and 76 % of control
endpoint: mean tumor weight, dose: 125.0 mg/kg/injection, schedule: Q01DX011 (ip), vehicle: saline, higher = larger tumour
  T/C: 106 % of control
endpoint: mean tumor weight, dose: 250.0 mg/kg/injection, schedule: Q01DX011 (ip), vehicle: saline, higher = larger tumour
  T/C: 103 % of control
endpoint: mean tumor weight, dose: 500.0 mg/kg/injection, schedule: Q01DX011 (ip), vehicle: saline, higher = larger tumour
  T/C: 101 % of control

## CC(C)NC(=O)c1ccc(N/N=[N+](/C)[O-])cc1
endpoint: median survival time, dose: 6.25 mg/kg/injection, schedule: Q01DX005 (ip), vehicle: saline with Tween-80, higher = longer survival
  T/C: 105 % of control
endpoint: median survival time, dose: 12.5 mg/kg/injection, schedule: Q01DX005 (ip), vehicle: saline with Tween-80, higher = longer survival
  T/C: 102 % of control
endpoint: median survival time, dose: 25.0 mg/kg/injection, schedule: Q01DX005 (ip), vehicle: saline with Tween-80, higher = longer survival
  T/C: 106 % of control
endpoint: median survival time, dose: 50.0 mg/kg/injection, schedule: Q01DX005 (ip), vehicle: saline with Tween-80, higher = longer survival
  T/C: 90 % of control and 103 % of control
endpoint: median survival time, dose: 100.0 mg/kg/injection, schedule: Q01DX005 (ip), vehicle: saline with Tween-80, higher = longer survival
  T/C: 111 % of control and 112 % of control
endpoint: median survival time, dose: 200.0 mg/kg/injection, schedule: Q01DX005 (ip), vehicle: saline with Tween-80, higher = longer survival
  T/C: 110 % of control

## N=C(N)Sc1cc(O)ccc1O
endpoint: median survival time, dose: 12.5 mg/kg/injection, schedule: Q01DX009 (ip), vehicle: other, higher = longer survival
  T/C: 102 % of control
endpoint: median survival time, dose: 18.75 mg/kg/injection, schedule: Q01DX009 (ip), vehicle: saline, higher = longer survival
  T/C: 120 % of control
endpoint: median survival time, dose: 25.0 mg/kg/injection, schedule: Q01DX009 (ip), vehicle: other, higher = longer survival
  T/C: 103 % of control
endpoint: median survival time, dose: 37.5 mg/kg/injection, schedule: Q01DX009 (ip), vehicle: saline, higher = longer survival
  T/C: 92 % of control
endpoint: median survival time, dose: 50.0 mg/kg/injection, schedule: Q01DX009 (ip), vehicle: other, higher = longer survival
  T/C: 93 % of control
endpoint: median survival time, dose: 100.0 mg/kg/injection, schedule: Q01DX009 (ip), vehicle: other, higher = longer survival
  T/C: 100 % of control
endpoint: median survival time, dose: 200.0 mg/kg/injection, schedule: Q01DX009 (ip), vehicle: other, higher = longer survival
  T/C: 93 % of control
endpoint: median survival time, dose: 300.0 mg/kg/injection, schedule: Q01DX009 (ip), vehicle: saline, higher = longer survival
  T/C: 91 % of control

## CC(O)CC1CCCN1C (centres undefined)
[1]
  T/C: 208 % of control
[2]
  T/C: 103 % of control
[3]
  T/C: 179 % of control

## CC(C)C(=O)[O][Sn]([CH3])([CH3])[CH3]
endpoint: median survival time, dose: 0.09 mg/kg/injection, schedule: Q01DX009 (ip), vehicle: saline, higher = longer survival
  T/C: 97 % of control
endpoint: median survival time, dose: 0.19 mg/kg/injection, schedule: Q01DX009 (ip), vehicle: saline, higher = longer survival
  T/C: 101 % of control
endpoint: median survival time, dose: 0.38 mg/kg/injection, schedule: Q01DX009 (ip), vehicle: saline, higher = longer survival
  T/C: 89 % of control and 105 % of control

## CN(C)N=Nc1n[nH]nc1C(N)=O
endpoint: median tumor weight (est.), dose: 134.5 mg/kg/injection, schedule: Q01DX009 (ip), vehicle: saline, higher = larger tumour
  T/C: 102 % of control
endpoint: median tumor weight (est.), dose: 269.0 mg/kg/injection, schedule: Q01DX009 (ip), vehicle: saline, higher = larger tumour
  T/C: 81 % of control
endpoint: median tumor weight (est.), dose: 538.0 mg/kg/injection, schedule: Q01DX009 (ip), vehicle: saline, higher = larger tumour
  T/C: 79 % of control

## Nc1nc(N)c2nc(CNc3ccc(C(=O)NC(CCC(=O)O)C(=O)O)cc3)cnc2n1 (centres undefined)
endpoint: mean tumor weight, dose: 0.02 mg/kg/injection, schedule: Q01DX011 (ip), vehicle: other, higher = larger tumour
  T/C: 94 % of control
endpoint: mean tumor weight, dose: 0.04 mg/kg/injection, schedule: Q01DX011 (ip), vehicle: other, higher = larger tumour
  T/C: 103 % of control
endpoint: mean tumor weight, dose: 0.08 mg/kg/injection, schedule: Q01DX011 (ip), vehicle: other, higher = larger tumour
  T/C: 97 % of control
endpoint: mean tumor weight, dose: 2.5 micrograms/kg/injection, schedule: Q01DX011 (ip), vehicle: saline, higher = larger tumour
  T/C: 76 % of control
endpoint: mean tumor weight, dose: 5.0 micrograms/kg/injection, schedule: Q01DX011 (ip), vehicle: saline, higher = larger tumour
  T/C: 98 % of control
endpoint: mean tumor weight, dose: 20.0 micrograms/kg/injection, schedule: Q01DX011 (ip), vehicle: saline, higher = larger tumour
  T/C: 100 % of control

## CCCCn1ccnc1C
endpoint: median survival time, dose: 1.56 mg/kg/injection, schedule: Q01DX009 (ip), vehicle: saline, higher = longer survival
  T/C: 112 % of control
endpoint: median survival time, dose: 3.13 mg/kg/injection, schedule: Q01DX009 (ip), vehicle: saline, higher = longer survival
  T/C: 99 % of control
endpoint: median survival time, dose: 12.5 mg/kg/injection, schedule: Q01DX009 (ip), vehicle: saline, higher = longer survival
  T/C: 99 % of control
endpoint: median survival time, dose: 25.0 mg/kg/injection, schedule: Q01DX009 (ip), vehicle: saline, higher = longer survival
  T/C: 119 % of control
[4]
  T/C: 98 % of control

## CC1=C2C(=C[C@@](C)(CO)[C@@H]2O)C(=O)[C@](C)(O)C12CC2
endpoint: mean tumor weight, dose: 0.05 mg/kg/injection, schedule: Q01DX011 (ip), vehicle: saline, higher = larger tumour
  T/C: 113 % of control
endpoint: mean tumor weight, dose: 0.1 mg/kg/injection, schedule: Q01DX011 (ip), vehicle: saline, higher = larger tumour
  T/C: 102 % of control
endpoint: mean tumor weight, dose: 0.2 mg/kg/injection, schedule: Q01DX011 (ip), vehicle: saline, higher = larger tumour
  T/C: 92 % of control
endpoint: mean tumor weight, dose: 0.4 mg/kg/injection, schedule: Q01DX011 (ip), vehicle: saline, higher = larger tumour
  T/C: 19 % of control and 41 % of control
endpoint: mean tumor weight, dose: 0.6 mg/kg/injection, schedule: Q01DX011 (ip), vehicle: saline, higher = larger tumour
  T/C: 20 % of control

## CCCCCCCCCCCCO[P+](=O)OCCCCCCCCCCCC
endpoint: mean tumor weight, dose: 50.0 mg/kg/injection, schedule: Q01DX011 (ip), vehicle: other, higher = larger tumour
  T/C: 122 % of control
endpoint: mean tumor weight, dose: 100.0 mg/kg/injection, schedule: Q01DX011 (ip), vehicle: other, higher = larger tumour
  T/C: 98 % of control
endpoint: mean tumor weight, dose: 200.0 mg/kg/injection, schedule: Q01DX011 (ip), vehicle: other, higher = larger tumour
  T/C: 76 % of control
endpoint: mean tumor weight, dose: 400.0 mg/kg/injection, schedule: Q01DX011 (ip), vehicle: other, higher = larger tumour
  T/C: 65 % of control
endpoint: mean tumor weight, dose: 400.0 mg/kg/injection, schedule: Q01DX011 (ip), vehicle: saline, higher = larger tumour
  T/C: 36 % of control
endpoint: mean tumor weight, dose: 600.0 mg/kg/injection, schedule: Q01DX011 (ip), vehicle: saline, higher = larger tumour
  T/C: 19 % of control
endpoint: mean tumor weight, dose: 900.0 mg/kg/injection, schedule: Q01DX011 (ip), vehicle: saline, higher = larger tumour
  T/C: 21 % of control
[4]
  T/C: 108 % of control
endpoint: median survival time, dose: 100.0 mg/kg/injection, schedule: Q01DX009 (ip), vehicle: saline, higher = longer survival
  T/C: 99 % of control

## COC(=O)C[C@](O)(CCC(C)(C)O)C(=O)O[C@@H]1C(OC)=C[C@]23CCCN2CCc2cc4c(cc2[C@H]13)OCO4
endpoint: mean tumor weight, dose: 0.25 mg/kg/injection, schedule: Q01DX011 (ip), vehicle: saline, higher = larger tumour
  T/C: 71 % of control
endpoint: mean tumor weight, dose: 0.5 mg/kg/injection, schedule: Q01DX011 (ip), vehicle: saline, higher = larger tumour
  T/C: 85 % of control
endpoint: mean tumor weight, dose: 2.0 mg/kg/injection, schedule: Q01DX011 (ip), vehicle: saline, higher = larger tumour
  T/C: 68 % of control

## CC1CN1P(=S)(N1CC1C)N1CC1C (centres undefined)
endpoint: mean tumor weight, dose: 9.0 mg/kg/injection, schedule: Q01DX011 (ip), vehicle: carboxymethylcellulose (CMC), higher = larger tumour
  T/C: 87 % of control
endpoint: mean tumor weight, dose: 17.5 mg/kg/injection, schedule: Q01DX011 (ip), vehicle: carboxymethylcellulose (CMC), higher = larger tumour
  T/C: 72 % of control
endpoint: mean tumor weight, dose: 53.0 mg/kg/injection, schedule: Q01DX011 (ip), vehicle: carboxymethylcellulose (CMC), higher = larger tumour
  T/C: 23 % of control

## c1ccc(N/N=C2/CCN3CCCc4cccc2c43)cc1
endpoint: median survival time, dose: 12.5 mg/kg/injection, schedule: Q04DX003 (ip), vehicle: DMSO, higher = longer survival
  T/C: 105 % of control
endpoint: median survival time, dose: 25.0 mg/kg/injection, schedule: Q04DX003 (ip), vehicle: DMSO, higher = longer survival
  T/C: 87 % of control
endpoint: median survival time, dose: 50.0 mg/kg/injection, schedule: Q04DX003 (ip), vehicle: DMSO, higher = longer survival
  T/C: 109 % of control
